# Experimental data as given in patent publication US6737383B1, “Herbicidal oxadiazolidines” (priority 1999, dated 2004).
# What was measured:
# [1] = test system: pigweed; test: Test B pre/postemergence pigweed; format: in vivo, Amaranthus retroflexus
# How it was run: (§1)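 Test chemicals in a non-phytotoxic solvent mixture with surfactant were sprayed preemergence onto planted seeds and postemergence onto plants 2 to 18 cm tall (1- to 4-leaf stage). After twelve to sixteen days in a greenhouse, injury was visually rated against untreated controls from 0 (no effect) to 10 (complete control).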
# [2] = test system: purple nutsedge; test: Test B pre/postemergence purple nutsedge; format: in vivo, Cyperus rotundus
# How it was run: as §1
# [3] = test system: wild oat; test: Test B pre/postemergence wild oat; format: in vivo, Avena fatua
# How it was run: as §1
# [4] = test system: rice; test: Test B flood test rice; format: in vivo, Oryza sativa
# How it was run: (§2)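 Plants were grown to the 2-leaf stage before treatment with test chemical, then held in a greenhouse for twelve to sixteen days. Injury was visually rated against untreated controls on a 0–10 scale, where 0 is no effect and 10 is complete control.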
# [5] = test system: sugar beet; test: Test B pre/postemergence sugar beet; format: in vivo, Beta vulgaris
# How it was run: as §1
# [6] = test system: wheat; test: Test B pre/postemergence wheat; format: in vivo, Triticum aestivum
# How it was run: as §1
# [7] = test system: velvetleaf; test: Test B pre/postemergence velvetleaf; format: in vivo, Abutilon theophrasti
# How it was run: as §1
# [8] = test system: smallflower flatsedge; test: Test B flood test smallflower flatsedge; format: in vivo, Cyperus difformis
# How it was run: as §2
# [9] = test system: surinam grass; test: Test B pre/postemergence surinam grass; format: in vivo, Brachiaria decumbens
# How it was run: as §1
# [10] = test system: crabgrass; test: Test B pre/postemergence crabgrass; format: in vivo, Digitaria sanguinalis
# How it was run: as §1
# [11] = test system: corn; test: Test B pre/postemergence corn; format: in vivo, Zea mays
# How it was run: as §1
# [12] = test system: bedstraw; test: Test B pre/postemergence bedstraw; format: in vivo, Galium aparine; settings: Postemergence; for Plant response rating, Bedstraw: scale 0 to 10, 0 is no effect, 10 is complete control; for Bedstraw plant response rating: scale of 0 to 10 where 0 is no effect and 10 is complete control
# How it was run: as §1
# [13] = test system: soybean; test: Test B pre/postemergence soybean; format: in vivo, Glycine max
# How it was run: as §1
# [14] = test system: rape; test: Test B pre/postemergence rape; format: in vivo, Brassica napus
# How it was run: as §1
# [15] = test system: blackgrass; test: Test B pre/postemergence blackgrass; format: in vivo, Alopecurus myosuroides
# How it was run: as §1
# [16] = test system: duck salad; test: Test B flood test duck salad; format: in vivo, Heteranthera limosa
# How it was run: as §2
# [17] = Postemergence, Rate 250 g/ha, scale 0 to 10, 0 is no effect, 10 is complete control
# [18] = Postemergence, Rate 500 g/ha, scale of 0 to 10 where 0 is no effect and 10 is complete control
# [19] = Preemergence, Rate 62 g/ha, scale 0 to 10 (0 no effect, 10 complete control)
# [20] = Preemergence, Rate 125 g/ha, scale of 0 to 10 where 0 is no effect and 10 is complete control
# [21] = Preemergence, Rate 250 g/ha, scale 0 to 10, 0 is no effect, 10 is complete control
# [22] = Preemergence, Rate 500 g/ha, scale 0 to 10, 0 is no effect, 10 is complete control
# [23] = Rate 62 g/ha, flood test species, Pre-emergence, visual evaluation after twelve to sixteen days
# [24] = Rate 125 g/ha, under heading Pre-emergence, flood test species, visual evaluation after twelve to sixteen days
# [25] = Rate 250 g/ha, Pre-emergence, flood-test species, scale 0 to 10, 0 is no effect, 10 is complete control
# [26] = Rate 500 g/ha, Pre-emergence, flood test species, scale 0 to 10 (0 no effect, 10 complete control)
# [27] = Postemergence, Rate 125 g/ha, scale 0 to 10, 0 is no effect, 10 is complete control
# [28] = Preemergence, Rate 250 g/ha, scale of 0 to 10 where 0 is no effect and 10 is complete control
# [29] = Rate 62 g/ha, Postemergence, scale of 0 to 10 where 0 is no effect and 10 is complete control
smiles,measurement,setting,value
CC(C)N(C(=O)n1oc(=O)n(C(C)CCl)c1=O)c1ccc(F)cc1F (stereo not drawn) [Compound 408],"Plant response rating, Redroot pigweed",[1]; [17],0
same,Redroot pigweed plant response rating,[1]; [18],7
same,"Plant response rating, Redroot pigweed",[1]; [19],4
same,"Plant response rating, Redroot pigweed",[1]; [20],6
same,Redroot pigweed plant response rating,[1]; [21],10
same,Redroot pigweed plant response rating,[1]; [22],10
same,"Plant response rating, Nutsedge",[2]; [17],2
same,Nutsedge plant response rating,[2]; [18],3
same,"Plant response rating, Nutsedge",[2]; [19],0
same,"Plant response rating, Nutsedge",[2]; [20],0
same,Nutsedge plant response rating,[2]; [21],0
same,Nutsedge plant response rating,[2]; [22],0
same,Wild oats plant response rating,[3]; [18],3
same,"Plant response rating, Wild oats",[3]; [19],0
same,"Plant response rating, Wild oats",[3]; [20],2
same,Wild oats plant response rating,[3]; [21],5
same,Wild oats plant response rating,[3]; [22],8
same,"Plant response rating, Rice (0 to 10 scale, 0 is no effect, 10 is complete control)",[4]; [23],0
same,"Rice plant response rating (0 to 10 scale, 0 is no effect, 10 is complete control)",[4]; [24],0
same,Rice plant response rating,[4]; [25],0
same,Rice plant response rating,[4]; [26],0
same,"Plant response rating, Sugarbeets",[5]; [17],0
same,Sugarbeets plant response rating,[5]; [18],6
same,"Plant response rating, Sugarbeets",[5]; [19],2
same,"Plant response rating, Sugarbeets",[5]; [20],4
same,Sugarbeets plant response rating,[5]; [21],8
same,Sugarbeets plant response rating,[5]; [22],8
same,Wheat plant response rating,[6]; [18],2
same,"Plant response rating, Wheat",[6]; [19],0
same,"Plant response rating, Wheat",[6]; [20],0
same,Wheat plant response rating,[6]; [21],4
same,Wheat plant response rating,[6]; [22],7
same,"Plant response rating, Velvetleaf",[7]; [17],0
same,Velvetleaf plant response rating,[7]; [18],4
same,"Plant response rating, Velvetleaf",[7]; [19],0
same,"Plant response rating, Velvetleaf",[7]; [20],1
same,Velvetleaf plant response rating,[7]; [21],7
same,Velvetleaf plant response rating,[7]; [22],7
same,"Plant response rating, S. Flatsedge (0 to 10 scale, 0 is no effect, 10 is complete control)",[8]; [23],0
same,"S. Flatsedge plant response rating (0 to 10 scale, 0 is no effect, 10 is complete control)",[8]; [24],0
same,S. Flatsedge plant response rating,[8]; [25],0
same,S. Flatsedge plant response rating,[8]; [26],0
same,"Plant response rating, B. signalgrass",[9]; [27],0
same,"Plant response rating, B. signalgrass",[9]; [17],0
same,B. signalgrass plant response rating,[9]; [18],5
same,"Plant response rating, B. signalgrass",[9]; [19],0
same,"Plant response rating, B. signalgrass",[9]; [20],2
same,B. signalgrass plant response rating,[9]; [28],4
same,B. signalgrass plant response rating,"[9]; Preemergence, Rate 500 g/ha, scale of 0 to 10 where 0 is no effect and 10 is complete control",7
same,B. signalgrass plant response rating,[9]; [29],0
same,"Plant response rating, Crabgrass",[10]; [27],4
same,"Plant response rating, Crabgrass",[10]; [17],8
same,Crabgrass plant response rating,[10]; [18],9
same,"Plant response rating, Crabgrass",[10]; [19],9
same,"Plant response rating, Crabgrass",[10]; [20],10
same,Crabgrass plant response rating,[10]; [21],10
same,Crabgrass plant response rating,[10]; [22],10
same,Crabgrass plant response rating,[10]; [29],3
same,"Plant response rating, Corn",[11]; [27],0
same,"Plant response rating, Corn",[11]; [17],0
same,Corn plant response rating,[11]; [18],0
same,"Plant response rating, Corn",[11]; [19],0
same,"Plant response rating, Corn",[11]; [20],2
same,Corn plant response rating,[11]; [21],4
same,Corn plant response rating,[11]; [22],8
same,Corn plant response rating,[11]; [29],0
same,"Plant response rating, Bedstraw",[12]; Rate 125 g/ha,6
same,"Plant response rating, Bedstraw",[12]; Rate 250 g/ha,8
same,Bedstraw plant response rating,[12]; Rate 500 g/ha,9
same,Bedstraw plant response rating,[12]; Rate 62 g/ha,6
same,"Plant response rating, Soybean",[13]; [17],3
same,Soybean plant response rating,[13]; [18],4
same,"Plant response rating, Soybean",[13]; [19],0
same,"Plant response rating, Soybean",[13]; [20],0
same,Soybean plant response rating,[13]; [21],0
same,Soybean plant response rating,[13]; [22],0
same,Rape plant response rating,[14]; [18],2
same,"Plant response rating, Rape",[14]; [19],0
same,"Plant response rating, Rape",[14]; [20],0
same,Rape plant response rating,[14]; [21],6
same,Rape plant response rating,[14]; [22],8
same,"Plant response rating, Blackgrass",[15]; [27],2
same,"Plant response rating, Blackgrass",[15]; [17],9
same,Blackgrass plant response rating,[15]; [18],10
same,"Plant response rating, Blackgrass",[15]; [19],6
same,"Plant response rating, Blackgrass",[15]; [20],9
same,Blackgrass plant response rating,[15]; [28],9
same,Blackgrass plant response rating,[15]; [22],10
same,Blackgrass plant response rating,[15]; [29],0
same,"Plant response rating, Ducksalad (0 to 10 scale, 0 is no effect, 10 is complete control)",[16]; [23],0
same,"Ducksalad plant response rating (0 to 10 scale, 0 is no effect, 10 is complete control)",[16]; [24],0
same,Ducksalad plant response rating,[16]; [25],0
same,Ducksalad plant response rating,[16]; [26],0
